Data on one compound can be found in ChEMBL document CHEMBL6134853, “Design, Synthesis, and Biological Evaluation of Pyrrolo[1,2-a]quinoxalin-4(5H)-one Derivatives as Potent and Orally Available Noncovalent Bruton's Tyrosine Kinase (BTK) Inhibitors” (J Med Chem, 2025).

The target in data set [1] is T1, Tyrosine-protein kinase BTK (Homo sapiens, UniProt Q06187). The data set is described as follows: Inhibition of BTK (unknown origin) by HTRF analysis. Background: TR-FRET usually uses a lanthanide donor and a delayed reading to cut background.
T1 sequence (Q06187 whole entry): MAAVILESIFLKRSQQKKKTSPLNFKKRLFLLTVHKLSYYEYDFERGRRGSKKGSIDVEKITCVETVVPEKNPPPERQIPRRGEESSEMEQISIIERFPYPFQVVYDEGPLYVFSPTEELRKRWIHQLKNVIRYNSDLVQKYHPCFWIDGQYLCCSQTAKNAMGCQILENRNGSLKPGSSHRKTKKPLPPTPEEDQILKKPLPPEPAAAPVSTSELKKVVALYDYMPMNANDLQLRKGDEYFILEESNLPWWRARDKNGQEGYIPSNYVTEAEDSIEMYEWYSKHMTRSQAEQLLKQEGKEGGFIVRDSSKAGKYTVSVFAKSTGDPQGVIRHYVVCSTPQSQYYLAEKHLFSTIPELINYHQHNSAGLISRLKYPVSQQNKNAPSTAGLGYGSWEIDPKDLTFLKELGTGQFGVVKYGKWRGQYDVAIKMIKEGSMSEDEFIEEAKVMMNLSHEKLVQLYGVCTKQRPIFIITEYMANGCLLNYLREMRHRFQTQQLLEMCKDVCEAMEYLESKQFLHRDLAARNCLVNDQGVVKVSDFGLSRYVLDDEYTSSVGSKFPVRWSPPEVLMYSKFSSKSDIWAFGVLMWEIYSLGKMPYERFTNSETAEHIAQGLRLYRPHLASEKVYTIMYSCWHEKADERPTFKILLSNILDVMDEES
Data set [2] concerns U-937. Kind of data set: Antiproliferative activity against human U-937 cells expressing BTK assessed as inhibition of cell proliferation incubated for 48 hrs by CCK-8 assay. The data set is classed as functional, cell-based. The settings on record: U-937, 48 h. (In general: Tetrazolium dyes change colour on reduction, which living cells bring about.)
Another data set concerns Ramos. The data set is described as follows: Antiproliferative activity against human Ramos cells expressing BTK assessed as inhibition of cell proliferation incubated for 48 hrs by CCK-8 assay. The data set is classed as functional, cell-based.
A short description of data set [3]: Tmax in male Sprague-Dawley rat at 10 mg/kg, po measured up to 5 hrs by LC-MS/MS analysis. The format is ADME, organism-based. The conditions noted are these: in vivo.
Data set [4] is described as follows: AUC (0 to 5 hrs) in male Sprague-Dawley rat at 10 mg/kg, po measured up to 5 hrs by LC-MS/MS analysis. The format is ADME, organism-based. The settings on record: in vivo.
A short description of data set [5]: MRT (0 to 5 hrs) in male Sprague-Dawley rat at 10 mg/kg, po measured up to 5 hrs by LC-MS/MS analysis. The format is ADME, organism-based. The conditions noted are these: in vivo.
Data set [6] can be described thus: AUC (0 to t) in male Sprague-Dawley rat at 10 mg/kg, po measured up to 24 hrs by LC-MS/MS analysis. The settings on record: in vivo. The format is ADME, organism-based.
Data set [7] has as its target T1, Tyrosine-protein kinase BTK. Kind of data set: Inhibition of BTK (unknown origin) at 100 nM relative to control.
Data set [8] has as its target T2, Tyrosine-protein kinase Tec (Homo sapiens) (UniProt P42680).
T2 sequence (whole entry): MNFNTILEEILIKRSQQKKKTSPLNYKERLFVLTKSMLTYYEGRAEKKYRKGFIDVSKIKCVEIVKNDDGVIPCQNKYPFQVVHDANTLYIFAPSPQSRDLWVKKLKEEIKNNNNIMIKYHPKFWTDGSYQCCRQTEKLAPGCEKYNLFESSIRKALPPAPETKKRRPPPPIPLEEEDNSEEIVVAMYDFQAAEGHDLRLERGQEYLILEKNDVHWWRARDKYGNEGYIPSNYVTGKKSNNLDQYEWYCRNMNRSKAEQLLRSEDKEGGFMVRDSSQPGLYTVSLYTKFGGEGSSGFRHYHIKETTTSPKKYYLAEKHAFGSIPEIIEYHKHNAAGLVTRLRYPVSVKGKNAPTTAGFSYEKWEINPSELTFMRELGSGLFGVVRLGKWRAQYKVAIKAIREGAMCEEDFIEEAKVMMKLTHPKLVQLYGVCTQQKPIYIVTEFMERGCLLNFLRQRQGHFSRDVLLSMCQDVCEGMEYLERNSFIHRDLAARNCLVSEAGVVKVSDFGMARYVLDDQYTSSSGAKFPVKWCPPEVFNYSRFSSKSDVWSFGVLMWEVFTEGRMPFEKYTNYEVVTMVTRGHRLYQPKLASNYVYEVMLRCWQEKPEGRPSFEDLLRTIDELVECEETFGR
The data set is described as follows: Inhibition of TEC (unknown origin) at 100 nM relative to control.

In data set [9] the target is Phosphatidylinositol 4-phosphate 5-kinase type-1 alpha (Homo sapiens) (UniProt Q99755). Kind of data set: Inhibition of PIP5K1A (unknown origin) at 100 nM relative to control.
Sequence of Phosphatidylinositol 4-phosphate 5-kinase type-1 alpha (Homo sapiens) (Q99755 whole entry): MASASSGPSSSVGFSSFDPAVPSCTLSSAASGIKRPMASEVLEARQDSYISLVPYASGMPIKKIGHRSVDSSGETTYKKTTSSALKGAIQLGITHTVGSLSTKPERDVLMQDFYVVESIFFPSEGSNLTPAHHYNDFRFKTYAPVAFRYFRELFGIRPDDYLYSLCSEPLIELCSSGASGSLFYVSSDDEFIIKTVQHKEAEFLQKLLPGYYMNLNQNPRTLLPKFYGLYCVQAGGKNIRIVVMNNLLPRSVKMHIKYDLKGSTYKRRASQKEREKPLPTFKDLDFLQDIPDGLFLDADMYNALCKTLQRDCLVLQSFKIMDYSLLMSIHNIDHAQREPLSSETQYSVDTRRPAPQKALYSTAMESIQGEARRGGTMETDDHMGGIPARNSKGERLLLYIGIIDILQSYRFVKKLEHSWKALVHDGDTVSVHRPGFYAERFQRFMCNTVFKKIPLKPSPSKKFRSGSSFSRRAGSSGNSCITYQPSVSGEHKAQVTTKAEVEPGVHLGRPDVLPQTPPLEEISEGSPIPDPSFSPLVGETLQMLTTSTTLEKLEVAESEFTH
Data set [10] addresses T3, Serine/threonine-protein kinase RIO3 (Homo sapiens) (UniProt O14730).
T3 sequence (whole entry): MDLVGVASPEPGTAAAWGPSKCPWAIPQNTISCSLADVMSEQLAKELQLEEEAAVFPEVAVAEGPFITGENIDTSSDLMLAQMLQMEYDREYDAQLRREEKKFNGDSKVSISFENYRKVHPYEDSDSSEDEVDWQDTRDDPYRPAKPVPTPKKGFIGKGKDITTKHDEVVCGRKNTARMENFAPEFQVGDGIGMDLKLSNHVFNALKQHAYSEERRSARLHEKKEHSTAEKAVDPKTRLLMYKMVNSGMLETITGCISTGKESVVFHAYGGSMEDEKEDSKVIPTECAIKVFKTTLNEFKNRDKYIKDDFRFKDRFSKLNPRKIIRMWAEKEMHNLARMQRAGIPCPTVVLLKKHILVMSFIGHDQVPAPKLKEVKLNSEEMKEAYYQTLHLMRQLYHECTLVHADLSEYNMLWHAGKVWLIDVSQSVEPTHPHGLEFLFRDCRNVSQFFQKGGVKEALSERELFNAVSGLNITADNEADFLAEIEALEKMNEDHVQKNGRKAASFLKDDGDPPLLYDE
Kind of data set: Inhibition of RIOK3 (unknown origin) at 100 nM relative to control.

Data set [11] deals with T1, Tyrosine-protein kinase BTK. The data set is described as follows: Inhibition of BTK phosphorylation at Y223 residue in anti-IgM induced human Ramos cells preincubated with compound for 4 hrs followed by anti-IgM induction and measured after 15 mins by Western blot analysis. The data set is classed as cell-based. The conditions noted are these: dose <= 1.0 µM, time 255.0 min. Background: A western blot detects proteins with antibodies after separation by electrophoresis.

Data set [12] concerns U-937. Kind of data set: Induction of cell cycle arrest in human U-937 cells assessed as accumulation of cells at S-phase incubated for 2 days by PI staining based flow cytometry analysis. The conditions noted are these: dose 1-10 µM, time 2.0 day. The data set is classed as functional.
Data set [13] relates to U-937. Kind of data set: Antitumor activity against human U-937 cells xenografted in BALB/c mouse assessed as tumor growth inhibition at 50 mg/kg, po administered once a day for 14 days. The format is functional. The settings on record: U-937, 336 h, time 14 day, read-out: TGI.
In data set [14] the test system is U-937. The data set is described as follows: Antitumor activity against human U-937 cells xenografted in BALB/c mouse assessed as tumor growth inhibition at 100 mg/kg, po administered once a day for 14 days. The data set is classed as functional. The conditions noted are these: U-937, 336 h, time 14 day, read-out: TGI.
A short description of data set [15]: Toxicity in BALB/c mouse xenografted with human U-937 cells assessed as change in body weight at 50 to 100 mg/kg, po administered once a day for 14 days. The settings on record: in vivo, 336 h, dose 50-100 mg/kg, time 14 day. The data set is classed as organism-based.
Data set [16] in a line: Toxicity in BALB/c mouse xenografted with human U-937 cells assessed as parenchymal injury in heart at 50 to 100 mg/kg, po administered once a day for 14 days by H and E staining based analysis. The format is organism-based. The conditions noted are these: in vivo, 336 h, dose 50-100 mg/kg, time 14 day.
Data set [17] can be described thus: Toxicity in BALB/c mouse xenografted with human U-937 cells assessed as parenchymal injury in liver at 50 to 100 mg/kg, po administered once a day for 14 days by H and E staining based analysis. The data set is classed as organism-based. The settings on record: in vivo, 336 h, dose 50-100 mg/kg, time 14 day.
The nature of data set [18]: Toxicity in BALB/c mouse xenografted with human U-937 cells assessed as parenchymal injury in spleen at 50 to 100 mg/kg, po administered once a day for 14 days by H and E staining based analysis. The data set is classed as organism-based. The settings on record: in vivo, 336 h, dose 50-100 mg/kg, time 14 day.
A short description of data set [19]: Toxicity in BALB/c mouse xenografted with human U-937 cells assessed as parenchymal injury in lung at 50 to 100 mg/kg, po administered once a day for 14 days by H and E staining based analysis. The data set is classed as organism-based. The settings on record: in vivo, 336 h, dose 50-100 mg/kg, time 14 day.
Data set [20] can be described thus: Toxicity in BALB/c mouse xenografted with human U-937 cells assessed as parenchymal injury in kidney at 50 to 100 mg/kg, po administered once a day for 14 days by H and E staining based analysis. The data set is classed as organism-based. The conditions noted are these: in vivo, 336 h, dose 50-100 mg/kg, time 14 day.
Data set [21] is described as follows: Toxicity in BALB/c mouse xenografted with human U-937 cells assessed as inflammatory infiltration in liver at 50 to 100 mg/kg, po administered once a day for 14 days by H and E staining based analysis. The data set is classed as organism-based. The conditions noted are these: in vivo, 336 h, dose 50-100 mg/kg, time 14 day.
A short description of data set [22]: Toxicity in BALB/c mouse xenografted with human U-937 cells assessed as inflammatory infiltration in lung at 50 to 100 mg/kg, po administered once a day for 14 days by H and E staining based analysis. The conditions noted are these: in vivo, 336 h, dose 50-100 mg/kg, time 14 day. The data set is classed as organism-based.

pIC50: −log10 of the molar value. The source made the active and inactive calls. The rule behind the calls is not given here.

The term pIC50 denotes the IC50 on a negative log10 scale, so that one unit is a factor of ten. Broadly, the Tmax is the time at which the peak concentration occurs. For orientation: AUC(0-t) means exposure summed from dosing to a finite time, without extrapolation to infinity. One may read the MRT last as a mean duration of stay, worked out from the concentration-time curve. For `CC(C)(O)c1ccc2c(c1)[nH]c(=O)c1ccc(-c3cccc(-n4c(=O)[nH]c5c(F)cccc5c4=O)c3F)n12`, the pIC50 is 7.67 in data set [1], 5.10 in the data set with U-937 [2] and 5.10 with Ramos. Further, the Tmax in data set [3] was 30 min. Also, the AUC(0-t) at 5 h in data set [4] is 116 ng·h/mL. In addition, the MRT last at 5 h in [5] was found to be 88.8 min. Further, in [6], the area under the curve AUC(0-t) at 24 h came to 161 ng·h/mL. The inhibition result in data set [7], in data set [8], in data set [9] and in data set [10] was “Active” each time. Moreover, in data set [11], the inhibition result was “Dose-dependent-effect”. The Activity result in the data set with U-937 [12] is “Dose-dependent-effect”; in data set [15] it was “Non-toxic”; in data set [16], “Non-toxic”; in data set [17], “Non-toxic”; in data set [18] it was “Non-toxic”; in data set [19] it was “Non-toxic”. Moreover, the Activity entry in data set [20], in data set [21] and in [22] was “Non-toxic” throughout. Also, the inhibition in vivo at 50 mg/kg in the data set with U-937 [13] was found to be 64.4%. Besides, the inhibition in vivo at 100 mg/kg in the data set on U-937 [14] was determined as 74.9%.
